One data set relates to M. tuberculosis. The following applies: chronic model, 25 mg/kg, 2-month treatment.
For a further data set, the system named is GFP expressing MTB. Nature of the data set: Single-cell time-lapse imaging in microfluidic device. In kind it is cell-based, M. tuberculosis.
The nature of a further data set: in vivo. The following applies: female, C57BL/6j, mouse; for Vd / clearance / half-life: iv; for Cmax / Tmax: po.
For data set [1] the following is noted: mice.
The next data set has as its system HepG2 mammalian cells. Type of data set: cell-based. The following applies: human.
The format of data set [2] is in vitro ADME. The following applies: mouse liver microsomes.
A short description of a further data set: physchem. The following applies: pH 7.4. Type of data set: physicochemical.
Data set [3] concerns M. tuberculosis H37Rv. Nature of the data set: microbe, parasite or virus in culture. Type of data set: cell-based. The following applies: Mycobacterium tuberculosis, read-out: Mtb MIC.
The target in data set [4] is T1, InhA (Mycobacterium tuberculosis, UniProt P9WGR1). The following applies: steady-state competition experiments.
For the next data set, the target named is human FAS (Homo sapiens, UniProt P49327). Briefly: Selectivity against human FAS. Type of data set: biochemical.
The test system of another data set is M. bovis BCG. In kind it is cell-based.
Data set [5] has as its system panel of Gram-positive and Gram-negative organisms. Briefly: General antimicrobial activity assay. In kind it is cell-based. The following applies: read-out: Antibacterial panel (MIC).
The target in data set [6] is T1, InhA. Briefly: biochemical.
The format of data set [7] is in vitro ADME. The following applies: human liver microsomes.
Data set [8] deals with M. tuberculosis H37Rv. The following applies: acute model.
The target in another data set is CYP 3A4 (Homo sapiens, UniProt P08684). Briefly: biochemical.
The subject of data set [9] is M. tuberculosis H37Rv. Briefly: microbe, parasite or virus in culture. The following applies: Mycobacterium tuberculosis, read-out: Mtb intracell MIC. In kind it is cell-based.
Another data set has as its target hERG potassium channel (Homo sapiens, UniProt Q12809). Briefly: cell-based.
The conditions of data set [10]: genetic toxicity.
Another data set relates to Memb.; Nucleus; Mitoch. In kind it is cell-based.
Data set [11] is classed as in vivo, C57BL/6 mice. The following applies: mice.
Where [12] appears, read: 5 μM, propidium iodide end point.

Values after ≈ are worked out from the molar mass of the structure shown. Read-outs that look alike come from different tables or passages of the source.

T1 sequence (P9WGR1 whole entry, looked up): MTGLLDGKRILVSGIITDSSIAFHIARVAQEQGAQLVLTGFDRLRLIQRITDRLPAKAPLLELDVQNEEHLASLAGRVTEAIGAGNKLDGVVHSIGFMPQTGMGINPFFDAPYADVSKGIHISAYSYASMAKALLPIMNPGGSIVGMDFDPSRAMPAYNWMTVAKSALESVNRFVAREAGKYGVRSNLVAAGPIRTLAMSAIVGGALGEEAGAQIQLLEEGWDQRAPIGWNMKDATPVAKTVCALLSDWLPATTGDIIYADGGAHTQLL
Sequence of CYP 3A4 (P08684 whole entry): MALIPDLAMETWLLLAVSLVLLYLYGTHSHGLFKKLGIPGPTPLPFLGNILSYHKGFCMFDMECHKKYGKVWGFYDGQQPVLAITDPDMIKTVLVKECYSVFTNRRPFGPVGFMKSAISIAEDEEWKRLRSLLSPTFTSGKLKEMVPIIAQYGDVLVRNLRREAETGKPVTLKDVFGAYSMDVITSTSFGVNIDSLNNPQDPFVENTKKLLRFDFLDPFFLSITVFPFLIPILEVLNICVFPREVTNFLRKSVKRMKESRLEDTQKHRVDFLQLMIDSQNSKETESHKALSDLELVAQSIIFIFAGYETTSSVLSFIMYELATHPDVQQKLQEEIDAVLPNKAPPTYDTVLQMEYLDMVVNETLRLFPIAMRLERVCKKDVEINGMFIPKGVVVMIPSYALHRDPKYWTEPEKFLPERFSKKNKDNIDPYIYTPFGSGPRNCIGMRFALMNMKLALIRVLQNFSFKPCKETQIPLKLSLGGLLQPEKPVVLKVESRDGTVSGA
Sequence of human FAS (P49327 whole entry): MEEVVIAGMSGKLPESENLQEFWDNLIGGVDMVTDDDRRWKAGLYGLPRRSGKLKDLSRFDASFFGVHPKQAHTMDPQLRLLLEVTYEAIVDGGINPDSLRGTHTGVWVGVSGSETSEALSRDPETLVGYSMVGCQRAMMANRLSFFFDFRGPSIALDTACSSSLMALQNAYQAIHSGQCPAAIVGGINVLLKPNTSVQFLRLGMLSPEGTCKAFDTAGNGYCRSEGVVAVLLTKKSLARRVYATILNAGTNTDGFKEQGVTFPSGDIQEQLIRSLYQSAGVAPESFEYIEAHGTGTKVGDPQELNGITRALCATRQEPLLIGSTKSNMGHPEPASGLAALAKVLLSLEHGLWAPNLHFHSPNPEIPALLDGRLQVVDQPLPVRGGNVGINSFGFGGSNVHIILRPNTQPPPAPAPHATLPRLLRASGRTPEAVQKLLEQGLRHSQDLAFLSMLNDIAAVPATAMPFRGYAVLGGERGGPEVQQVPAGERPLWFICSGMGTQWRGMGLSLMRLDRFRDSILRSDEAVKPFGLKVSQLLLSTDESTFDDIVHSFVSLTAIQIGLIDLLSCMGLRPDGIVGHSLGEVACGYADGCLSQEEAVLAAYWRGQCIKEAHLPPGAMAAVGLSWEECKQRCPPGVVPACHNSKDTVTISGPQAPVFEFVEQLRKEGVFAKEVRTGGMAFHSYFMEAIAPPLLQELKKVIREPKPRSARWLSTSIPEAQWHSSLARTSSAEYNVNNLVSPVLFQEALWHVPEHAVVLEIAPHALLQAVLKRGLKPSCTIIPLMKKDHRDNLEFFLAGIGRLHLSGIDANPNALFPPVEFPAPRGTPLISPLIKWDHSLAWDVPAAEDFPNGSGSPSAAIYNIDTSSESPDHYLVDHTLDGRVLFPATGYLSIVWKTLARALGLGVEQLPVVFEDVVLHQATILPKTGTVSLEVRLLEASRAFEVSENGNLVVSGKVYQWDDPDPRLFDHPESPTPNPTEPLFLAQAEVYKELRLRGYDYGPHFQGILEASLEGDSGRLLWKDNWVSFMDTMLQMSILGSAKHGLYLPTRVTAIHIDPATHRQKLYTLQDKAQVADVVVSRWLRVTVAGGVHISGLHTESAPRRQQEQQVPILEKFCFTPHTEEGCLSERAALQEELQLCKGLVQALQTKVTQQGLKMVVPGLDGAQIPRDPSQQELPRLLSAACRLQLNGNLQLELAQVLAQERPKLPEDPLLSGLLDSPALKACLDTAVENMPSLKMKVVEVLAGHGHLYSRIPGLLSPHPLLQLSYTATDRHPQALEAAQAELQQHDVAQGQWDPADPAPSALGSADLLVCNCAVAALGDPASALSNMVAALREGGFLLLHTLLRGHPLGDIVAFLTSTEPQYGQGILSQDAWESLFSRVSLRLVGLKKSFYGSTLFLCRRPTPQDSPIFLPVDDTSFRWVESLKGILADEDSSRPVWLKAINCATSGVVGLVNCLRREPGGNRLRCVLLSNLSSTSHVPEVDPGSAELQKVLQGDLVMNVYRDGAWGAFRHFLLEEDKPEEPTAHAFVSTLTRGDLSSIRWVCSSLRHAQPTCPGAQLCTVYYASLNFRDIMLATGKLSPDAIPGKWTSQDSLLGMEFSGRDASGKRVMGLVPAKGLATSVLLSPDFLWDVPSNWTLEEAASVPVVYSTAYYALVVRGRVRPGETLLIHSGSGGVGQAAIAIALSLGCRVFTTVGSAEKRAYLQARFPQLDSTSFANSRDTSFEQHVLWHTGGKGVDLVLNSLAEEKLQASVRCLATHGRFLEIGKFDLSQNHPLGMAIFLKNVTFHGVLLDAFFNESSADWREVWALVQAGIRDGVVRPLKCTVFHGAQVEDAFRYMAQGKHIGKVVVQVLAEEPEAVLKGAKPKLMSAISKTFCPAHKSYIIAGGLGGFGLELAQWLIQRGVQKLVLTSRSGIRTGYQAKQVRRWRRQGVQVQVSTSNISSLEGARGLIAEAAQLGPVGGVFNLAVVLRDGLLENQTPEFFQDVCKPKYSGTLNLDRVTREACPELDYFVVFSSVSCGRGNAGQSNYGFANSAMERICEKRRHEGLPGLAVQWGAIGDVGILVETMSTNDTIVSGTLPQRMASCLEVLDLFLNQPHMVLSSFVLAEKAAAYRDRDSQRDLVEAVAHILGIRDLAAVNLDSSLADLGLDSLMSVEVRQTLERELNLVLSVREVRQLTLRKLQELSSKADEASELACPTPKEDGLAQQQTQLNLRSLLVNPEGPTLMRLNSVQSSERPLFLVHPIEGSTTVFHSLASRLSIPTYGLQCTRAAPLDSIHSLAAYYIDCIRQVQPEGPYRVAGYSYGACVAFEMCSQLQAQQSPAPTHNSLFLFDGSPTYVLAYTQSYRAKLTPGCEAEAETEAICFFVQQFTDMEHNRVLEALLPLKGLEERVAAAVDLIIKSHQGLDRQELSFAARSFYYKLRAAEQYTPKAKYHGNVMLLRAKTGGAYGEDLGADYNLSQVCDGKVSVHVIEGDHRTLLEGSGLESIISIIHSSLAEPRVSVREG
Sequence of hERG potassium channel (Q12809 whole entry): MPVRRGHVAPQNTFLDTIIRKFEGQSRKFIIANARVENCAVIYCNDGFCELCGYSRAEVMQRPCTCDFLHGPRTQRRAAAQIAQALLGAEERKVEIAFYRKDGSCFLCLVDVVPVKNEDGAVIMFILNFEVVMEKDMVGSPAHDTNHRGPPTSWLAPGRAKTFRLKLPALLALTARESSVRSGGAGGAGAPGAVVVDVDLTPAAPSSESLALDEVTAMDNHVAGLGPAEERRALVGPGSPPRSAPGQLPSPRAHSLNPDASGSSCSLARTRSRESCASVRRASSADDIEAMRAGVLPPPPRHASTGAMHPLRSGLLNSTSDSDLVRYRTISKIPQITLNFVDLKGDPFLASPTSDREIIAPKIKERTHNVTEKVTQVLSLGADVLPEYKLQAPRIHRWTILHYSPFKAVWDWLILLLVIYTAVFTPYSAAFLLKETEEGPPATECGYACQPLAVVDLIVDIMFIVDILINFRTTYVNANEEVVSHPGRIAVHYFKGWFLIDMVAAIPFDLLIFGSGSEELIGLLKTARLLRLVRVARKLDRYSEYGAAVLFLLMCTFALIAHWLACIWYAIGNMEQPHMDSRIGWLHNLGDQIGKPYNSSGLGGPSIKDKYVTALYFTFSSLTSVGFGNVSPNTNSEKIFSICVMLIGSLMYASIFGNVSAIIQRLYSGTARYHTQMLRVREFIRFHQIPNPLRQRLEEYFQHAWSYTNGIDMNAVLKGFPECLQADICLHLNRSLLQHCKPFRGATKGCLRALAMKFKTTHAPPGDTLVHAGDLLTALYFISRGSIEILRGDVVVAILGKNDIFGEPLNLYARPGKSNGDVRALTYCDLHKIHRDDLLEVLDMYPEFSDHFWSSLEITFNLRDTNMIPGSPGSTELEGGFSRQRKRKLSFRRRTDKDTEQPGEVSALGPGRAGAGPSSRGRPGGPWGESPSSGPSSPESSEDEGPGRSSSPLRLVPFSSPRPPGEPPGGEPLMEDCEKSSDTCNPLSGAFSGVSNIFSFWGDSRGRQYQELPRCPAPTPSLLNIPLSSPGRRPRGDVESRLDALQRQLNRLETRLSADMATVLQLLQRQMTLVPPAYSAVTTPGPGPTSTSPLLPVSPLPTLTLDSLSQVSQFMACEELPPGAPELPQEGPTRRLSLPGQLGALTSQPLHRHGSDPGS

For `NNC(=O)c1ccncc1` [INH, isoniazid], the “Clearance of bacilli (Log CFU)” value in the data set on M. tuberculosis (P < 0.001) is on record as “significant clearance of bacilli compared with the controls”; in the data set on M. tuberculosis (P < 0.001, listed as isoniazid), “clear efficacy”. In addition, the “Total fraction of cells undergoing lysis” value in the data set with GFP expressing MTB (INH 0.5 µg/ml, N = 41 microcolonies) was 42 ± 15%.

For `Cc1ccn(C(C)c2nnc(Nc3ccn(Cc4c(F)cccc4Cl)n3)s2)n1` (stereo not shown) [GSK613, N-(1-(2-chloro-6-fluorobenzyl)-1H-pyrazol-3-yl)-5-(1-(3-methyl-1H-pyrazol-1-yl)ethyl)-1,3,4-thiadiazol-2-amine], in “in vivo” (0.5 mg/kg), the volume of distribution (Vd) came to 2.5 L/kg, the clearance is 157 mL/min/kg and the half-life is 18 min. Also, in “in vivo” (50 mg/kg), the Cmax was found to be 94.3 ng/mL and the time of peak concentration (Tmax) came to 45 min. Also, the “DNAUC (dose normalized exposure)” value in [1] (Table 1 hits) is on record as 5 ng·h/ml per mg/kg. The “HepG2 cytotoxicity Tox 50” value in the data set with HepG2 mammalian cells is greater than 100 µM. The “In vitro Cli mouse” value in data set [2] worked out at 11.9 mL/min/g. In “physchem”, this compound displayed a solubility of 10 µM (≈ 4.18 µg/mL). Further, the MIC in the data set on M. tuberculosis H37Rv [3] is no more than 1 µM. At InhA [4], the “Mode of inhibition versus NADH” value is reported as “uncompetitive with NADH” and the “Mode of inhibition versus fatty acid substrate” value was “competes with the fatty acid substrate”. The “Activity against human FAS” value on human FAS is “inactive”. The “Shift in MIC in strains overexpressing the target” value in the data set on M. bovis BCG is on record as no less than 4 fold. The MIC in [5] was no less than 64 µg/mL. The same compound registered a 50% inhibitory concentration (IC50) against InhA [6] of 0.007 µM. Also, the “In vitro Cli human” value in data set [7] came out at 2.9 mL/min/g.

On to `COc1c(N2C[C@@H]3CCCN[C@@H]3C2)c(F)cc2c(=O)c(C(=O)O)cn(C3CC3)c12` [moxifloxacin, reference compound], for which the Bacterial load reduction in the data set with M. tuberculosis H37Rv [8] (30 mg/kg) is reported as 4 log10 colony forming units (CFU) per lung.

`Cc1csc([C@](C)(O)c2nnc(Nc3ccn(Cc4csc(C)n4)n3)s2)n1` [GSK693, (S)-1-(4-methylthiazol-2-yl)-1-(5-((1-((2-methylthiazol-4-yl)methyl)-1H-pyrazol-3-yl)amino)-1,3,4-thiadiazol-2-yl)ethanol]: in the data set “in vivo” (4 mg/kg), the distribution volume (Vd) worked out at 2.58 L/kg, the clearance came to 83 mL/min/kg and the half-life was 56.4 min. Further, in the data set “in vivo” (100 mg/kg), the maximum concentration (Cmax) is 37300 ng/mL and the time of peak concentration (Tmax) is 25.2 min. The DNAUC in data set [1] (Table 3 lead) worked out at 935.8 ng·h/ml per mg/kg. The same compound gave a concentration for half-maximal inhibition (IC50) against CYP 3A4 (CYP 3A4 IC50 VG, VG substrate) of 25.1 µM. For the same compound, the IC50 against CYP 3A4 (CYP 3A4 IC50 VR, VR substrate) was greater than 50.1 µM. Also, in the data set with HepG2 mammalian cells, the “HepG2 cytotoxicity Tox 50” value was greater than 50 µM. Also, in [2], the “In vitro Cli mouse” value came out at 2.1 mL/min/g. Besides, in the data set with M. tuberculosis H37Rv [9], the MIC is 0.2 µM (≈ 0.0839 µg/mL). For the same compound, the concentration in solution in the data set “physchem” (solubility) was 413 µM (≈ 173 µg/mL). The same compound gave a 50% inhibitory concentration (IC50) against hERG potassium channel greater than 50 µM. Also, the MIC in the data set with M. tuberculosis H37Rv [3] is 0.2 µM (≈ 0.0839 µg/mL). Further, the Ames test entry in [10] was “Negative”. Also, the “Total fraction of cells undergoing lysis” value in the data set with GFP expressing MTB (5 μM GSK693 for 10 days, N = 32 microcolonies) is recorded as 53 ± 20%. For the same compound, the “Regrowth after washout of the drug” value in the data set with GFP expressing MTB (5 μM for 10 days, washout 7 days) was “None of the intact bacteria exhibited regrowth”. For the same compound, in the data set with GFP expressing MTB (setting [12]), the “Intact cells PI-positive after exposure” value is “About 22%” and the “Intact cells still able to exclude PI” value amounted to 78%. In the data set with Memb.; Nucleus; Mitoch., the “Cell Health (Memb.; Nucleus; Mitoch. )” value was greater than 199.5 µM. The “Maximal no lethal dose (MNLD)” value in data set [11] is “higher than 1000 mg/kg”. Besides, the 50% inhibitory concentration (IC50) against InhA [6] was 0.007 µM. In addition, the Bacterial load reduction in the data set with M. tuberculosis H37Rv [8] (100 mg/kg oral) is given as 4 log10 colony forming units (CFU) per lung. Moreover, the “Clearance of bacilli (Log CFU)” value in the data set with M. tuberculosis H37Rv [8] (oral 30, 100 and 300 mg/kg, P < 0.001) is recorded as “significant clearance of bacilli compared with the controls”. For the same compound, the “In vitro Cli human” value in data set [7] turned out to be 0.2 mL/min/g.

These data come from publication PMC4919555 (EBioMedicine, 2016).
